# Laboratory results as given in patent US20040115167A1, “Drug delivery device and method having coated microprojections incorporating vasoconstrictors” (priority 2002, published 2004).
# Like-named read-outs stand apart in the source and are kept apart here.
# Legend:
# [1] = test system: hairless guinea pig; conditions: skin sites monitored visually for 30 minutes
# Experimental: (§1) The systems that were applied comprised a coated microprojection array which was adhered to the center of a low density polyethylene (LDPE) 7 cm^2 disc, coated with a propriety adhesive. Two systems were applied to each hairless guinea pig.
# (§2) At the time of application, the skin of the flank of the animal was manually stretched bilaterally (opposing forces applied on both sides of the expected application site). System application was performed with an impact applicator which applied a force of 0.4 J. Following application of the systems, the stretching tension was released.
# (§3) Half of the systems were applied for 5 seconds and then removed. The second half of the systems were applied for 2 minutes and then removed. Therefore there were four test conditions with each condition having been tested with four system.
# Pictures of the application skin sites were taken 2 minutes after removal of the system. The skin sites were monitored visually for 30 minutes for blanching. Bleeding was evaluated visually from the pictures by estimating the percentage of the microprojection puncture sites that were bleeding. Blood flow (mL/min/100 g) was evaluated with a laser Doppler Velocimeter (LDV) at the skin site immediately prior to application of the system and 2 minutes following removal of the system. […]
# [2] = test system: hairless guinea pig; conditions: for blood flow at the application site: LDV 2 minutes after removal
# Experimental: The Guinea pig albumin was used as a model drug or vaccine. The Guinea pig albumen and epinephrine were dry coated on the microprojections of a microprojection array. A microprojection array having long microprojections (600 microns) were chosen in order to maximize bleeding so that the efficacy of the vasoconstrictor could be more easily evaluated.
# An aqueous coating solution containing 200 mg/ml of guinea pig albumin and 50 mg/ml of epinephrine bitartrate was prepared. A control solution was prepared which contained only 200 mg/mL guinea pig albumin in water and no vasoconstrictor. The microprojection arrays that were used a penetration angle of 80°. The penetration angle is defined as the angle between the two upper penetration edges of the microprojection. There were 72 microprojections/cm^2 and the overall area of the microprojection array was 2 cm^2.
# One group of arrays were dipped into each solution and the excess was wicked off by briefly contacting the microprojection array with tissue. The microprojection arrays were then allowed to air-dry overnight at room temperature.
# as §1, §2, §3
# Pictures of the application skin sites were taken 2 minutes after removal of the system. The skin sites were monitored visually for 30 minutes for blanching. Bleeding was evaluated visually from the pictures by estimating the percentage of the microprojection puncture sites that were bleeding. Blood flow (mL/min/100 g) was evaluated with a laser Doppler Velocimeter (LDV) at the skin site immediately prior to application of the system and 2 minutes following removal of the system. For each guinea pig, the blood flow measurement taken prior to system application was subtracted from the second measurement (normalized blood flow).
smiles,measurement,setting,value
CNC[C@H](O)c1ccc(O)c(O)c1 [epinephrine],time blanching was detectable after removal of the microprojection arrays,[1],about 30 minutes
same,percentage of microslits that were bleeding,"[2]; 5-second application, 600 micron microprojection array dry coated with guinea pig albumin 200 mg/ml + epinephrine bitartrate 50 mg/ml, pictures 2 minutes after removal",20%
same,normalized blood flow (erythema at the application site),"[2]; FIG. 5, baseline blood flow subtracted",minimizes the erythema
same,blood flow at the application site,[2]; systems applied for 5 seconds,30 mls/min/100 grams
same,blood flow at the application site,[2]; systems applied for 2 minutes,30 mls/min/100 grams
same,percentage of microslits that were bleeding,"[2]; two-minute application, compared with 5-second application, same coated array",little change in the data
